{
  "source": "patent US5807754A",
  "about": "“Combinatorial synthesis and high-throughput screening of a Rev-inhibiting arylidenediamide array” (Arqule, Inc., priority 1995, dated 1998)",
  "data": [
    {"target": "Rev-RRE complexes (recombinant Rev protein, synthetic 32P-labelled RRE RNA) (Human immunodeficiency virus type 1 group M subtype B, UniProt P04618)", "sequence (P04618 whole entry, looked up, one chain of several)": "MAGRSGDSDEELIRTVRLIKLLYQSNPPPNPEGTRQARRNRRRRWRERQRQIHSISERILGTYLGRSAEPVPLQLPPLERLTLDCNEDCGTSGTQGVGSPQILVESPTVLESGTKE", "assay": "Rev-RRE binding inhibition, nitrocellulose filter binding assay with scintillation counting", "design": "species or system Human Immunodeficiency Virus (HIV)", "settings": "array assayed at 6 ug/mL, non-specific competitor RNA", "protocol": "(§1) The array was assayed in parallel at 6 ug/mL in reaction mixtures containing recombinant Rev protein, synthetic 32P-labelled RRE RNA, and a non-specific competitor RNA. The reaction is then filtered through nitrocellulose filters and washed with a low salt binding buffer. Rev-RRE complexes are retained in the filter while the unbound RRE filters through. Rev-RRE complexes retained in the filter are then quantified by scintillation counting. The percentage of inhibition is calculated according to the formula: […]\n(§2) where CPM1 is the activity obtained in the presence of the drug and CPM0 is the average activity in the absence of the drug. […] Raising the criterion of interest to 90% inhibition of complex formation afforded a set of 55 compounds which were examined for common functionality. These 55 compounds and their inhibition values are listed in the following table, where A, B, and C are the structural diversity elements of the scaffold: […]", "units": {"% inh": "%"}, "values": [
      {"smiles": "O=C(NC(c1ccccc1)c1ccccc1)/C(=C/c1cccc(C(F)(F)F)c1)NC(=O)c1ccc2ccccc2c1", "% inh": 93}
    ]},
    {"target": "Rev-RRE complexes (recombinant Rev protein, synthetic 32P-labelled RRE RNA) (Human immunodeficiency virus type 1 group M subtype B, UniProt P04618)", "assay": "Rev-RRE binding inhibition, nitrocellulose filter binding assay with scintillation counting", "design": "species or system Human Immunodeficiency Virus (HIV)", "settings": "array assayed at 6 ug/mL, non-specific competitor RNA, listed as 2-napbthyl / α,α,α-trifluoro-m-toluyl / 1,2,3,4-tetrahydronaphth-1-yl", "protocol": "as §1, §2", "units": {"% inh": "%"}, "values": [
      {"smiles": "O=C(NC1CCCc2ccccc21)/C(=C/c1cccc(C(F)(F)F)c1)NC(=O)c1ccc2ccccc2c1", "note": "(stereo not shown)", "% inh": 90}
    ]},
    {"target": "Rev-RRE complexes (recombinant Rev protein, synthetic 32P-labelled RRE RNA) (Human immunodeficiency virus type 1 group M subtype B, UniProt P04618)", "assay": "Rev-RRE binding inhibition, nitrocellulose filter binding assay with scintillation counting", "design": "species or system Human Immunodeficiency Virus (HIV)", "settings": "array assayed at 6 ug/mL, non-specific competitor RNA, read-out: % inh", "protocol": "as §1, §2", "units": {"inhibition at 6 µg/mL": "%"}, "values": [
      {"smiles": "COc1cccc(/C=C(\\NC(=O)c2ccc3ccccc3c2)C(=O)NC(c2ccccc2)c2ccccc2)c1", "note": "[2-naphthyl / m-anisyl / diphenylmethyl]", "inhibition at 6 µg/mL": 94},
      {"smiles": "O=C(NCc1cccc2ccccc12)/C(=C/c1ccc(-c2ccccc2)cc1)NC(=O)c1ccc(Cl)cc1Cl", "inhibition at 6 µg/mL": 90},
      {"smiles": "O=C(NCCc1ccccc1)/C(=C/c1ccc(-c2ccccc2)cc1)NC(=O)c1ccc(Cl)cc1Cl", "inhibition at 6 µg/mL": 91},
      {"smiles": "O=C(NC1CCCc2ccccc21)/C(=C/c1cccc(Oc2ccccc2)c1)NC(=O)c1ccc(C(F)(F)F)cc1", "note": "(stereo not shown)", "inhibition at 6 µg/mL": 90},
      {"smiles": "Cc1ccc(C(=O)N/C(=C\\c2ccccc2Cl)C(=O)NCCCN2CCOCC2)cc1", "inhibition at 6 µg/mL": 95},
      {"smiles": "O=C(NCC(O)c1ccccc1)/C(=C/c1ccc(Cl)cc1Cl)NC(=O)c1ccc2ccccc2c1", "note": "(stereo not shown)", "inhibition at 6 µg/mL": 95},
      {"smiles": "O=C(NC1CCCc2ccccc21)/C(=C/c1ccc(C(F)(F)F)cc1)NC(=O)c1ccc2ccccc2c1", "note": "(stereo not shown)", "inhibition at 6 µg/mL": 95},
      {"smiles": "CC(C)CC(CO)NC(=O)/C(=C/c1cccc(C(F)(F)F)c1)NC(=O)c1ccc2ccccc2c1", "note": "(stereo not shown)", "inhibition at 6 µg/mL": 94},
      {"smiles": "O=C(Nc1cccnc1)/C(=C/c1ccccc1F)NC(=O)c1ccccc1", "note": "[phenyl / 2-fluorophenyl / 3-pyridinyl]", "inhibition at 6 µg/mL": 91},
      {"smiles": "O=C(N/C(=C\\c1ccc(C(F)(F)F)cc1)C(=O)N1CCN(c2cccc(C(F)(F)F)c2)CC1)c1ccc(Cl)cc1Cl", "inhibition at 6 µg/mL": 90},
      {"smiles": "O=C(N/C(=C\\c1cccc(Oc2ccccc2)c1)C(=O)N1CCN(c2ccccc2)CC1)c1ccc(C(F)(F)F)cc1", "inhibition at 6 µg/mL": 90},
      {"smiles": "O=C(NCc1cccc2ccccc12)/C(=C/c1cnc2ccccc2c1)NC(=O)c1ccc2ccccc2c1", "inhibition at 6 µg/mL": 96},
      {"smiles": "O=C(NC(c1ccccc1)c1ccccc1)/C(=C/c1cccc(Oc2ccccc2)c1)NC(=O)c1ccc(C(F)(F)F)cc1", "inhibition at 6 µg/mL": 94},
      {"smiles": "O=C(NC1CCCc2ccccc21)/C(=C/c1cccc(C(F)(F)F)c1)NC(=O)c1ccc2ccccc2c1", "note": "(stereo not shown)", "inhibition at 6 µg/mL": 97},
      {"smiles": "O=C(NC1CCc2ccccc21)/C(=C/c1cccc(C(F)(F)F)c1)NC(=O)c1ccc2ccccc2c1", "note": "(stereo not shown)", "inhibition at 6 µg/mL": 92},
      {"smiles": "Cc1ccc(CCNC(=O)/C(=C/c2cccc(Oc3ccccc3)c2)NC(=O)c2ccc(Cl)cc2Cl)cc1", "inhibition at 6 µg/mL": 95},
      {"smiles": "Cc1ccc(CCNC(=O)/C(=C/c2ccc(C(F)(F)F)cc2)NC(=O)c2ccc(C(F)(F)F)cc2)cc1", "inhibition at 6 µg/mL": 95},
      {"smiles": "O=C(NCC(c1ccccc1)c1ccccc1)/C(=C/c1ccc(C(F)(F)F)cc1)NC(=O)c1ccc2ccccc2c1", "inhibition at 6 µg/mL": 95},
      {"smiles": "O=C(NCCCc1ccccc1)/C(=C/c1ccc(C(F)(F)F)cc1)NC(=O)c1ccc2ccccc2c1", "inhibition at 6 µg/mL": 91},
      {"smiles": "O=C(NC1CCCc2ccccc21)/C(=C/c1ccc(-c2ccccc2)cc1)NC(=O)c1ccc(Cl)cc1Cl", "note": "(stereo not shown)", "inhibition at 6 µg/mL": 92},
      {"smiles": "O=C(N/C(=C\\c1ccc(C(F)(F)F)cc1)C(=O)N1CCN(c2ccccc2)CC1)c1ccc(C(F)(F)F)cc1", "inhibition at 6 µg/mL": 91},
      {"smiles": "O=C(N/C(=C\\c1ccc(C(F)(F)F)cc1)C(=O)N1CCC(Cc2ccccc2)CC1)c1ccc2ccccc2c1", "inhibition at 6 µg/mL": 91},
      {"smiles": "O=C(NCC(c1ccccc1)c1ccccc1)/C(=C/c1cc(F)cc(F)c1)NC(=O)c1ccc(Cl)cc1Cl", "inhibition at 6 µg/mL": 94},
      {"smiles": "O=C(NCc1ccccc1)/C(=C/c1ccc(-c2ccccc2)cc1)NC(=O)c1ccc(Cl)cc1Cl", "inhibition at 6 µg/mL": 94},
      {"smiles": "CCC(CC)NC(=O)/C(=C/c1cccc(C(F)(F)F)c1)NC(=O)c1ccc2ccccc2c1", "inhibition at 6 µg/mL": 93},
      {"smiles": "O=C(NC1CCCCC1)/C(=C/c1ccccc1)NC(=O)c1ccc(Cl)cc1Cl", "note": "[2,4-dichlorophenyl / phenyl / cyclohexyl]", "inhibition at 6 µg/mL": 98},
      {"smiles": "O=C(NCc1cccc2ccccc12)/C(=C/c1cccc(C(F)(F)F)c1)NC(=O)c1ccc2ccccc2c1", "inhibition at 6 µg/mL": 94},
      {"smiles": "O=C(NCC(c1ccccc1)c1ccccc1)/C(=C/c1ccc(F)cc1)NC(=O)c1ccc2ccccc2c1", "inhibition at 6 µg/mL": 90},
      {"smiles": "O=C(N/C(=C\\c1cccc(C(F)(F)F)c1)C(=O)N1CCC(Cc2ccccc2)CC1)c1ccc2ccccc2c1", "inhibition at 6 µg/mL": 95},
      {"smiles": "Cc1ccc(CCNC(=O)/C(=C/c2cccc(C(F)(F)F)c2)NC(=O)c2ccc3ccccc3c2)cc1", "inhibition at 6 µg/mL": 96},
      {"smiles": "O=C(NC(c1ccccc1)c1ccccc1)/C(=C/c1ccc(OC(F)(F)F)cc1)NC(=O)c1ccc2ccccc2c1", "inhibition at 6 µg/mL": 96},
      {"smiles": "Cc1ccc(C(=O)N/C(=C\\c2ccc(F)cc2F)C(=O)NCC(O)c2ccccc2)cc1", "note": "(stereo not shown)", "inhibition at 6 µg/mL": 96},
      {"smiles": "O=C(NCc1ccco1)/C(=C/c1cccc(C(F)(F)F)c1)NC(=O)c1ccc2ccccc2c1", "inhibition at 6 µg/mL": 93},
      {"smiles": "O=C(Nc1cccnc1)/C(=C/c1ccc(Cl)cc1Cl)NC(=O)c1ccc2ccccc2c1", "inhibition at 6 µg/mL": 91},
      {"smiles": "O=C(NC1CCc2ccccc21)/C(=C/c1ccc(-c2ccccc2)cc1)NC(=O)c1ccc(Cl)cc1Cl", "note": "(stereo not shown)", "inhibition at 6 µg/mL": 90},
      {"smiles": "O=C(NCc1cccc2ccccc12)/C(=C/c1ccc(F)cc1F)NC(=O)c1ccc2ccccc2c1", "inhibition at 6 µg/mL": 93},
      {"smiles": "Cc1ccc(CCNC(=O)/C(=C/c2ccc(-c3ccccc3)cc2)NC(=O)c2ccc(Cl)cc2Cl)cc1", "inhibition at 6 µg/mL": 94},
      {"smiles": "O=C(NC(c1ccccc1)c1ccccc1)/C(=C/c1cccc(Cl)c1)NC(=O)c1ccc2ccccc2c1", "inhibition at 6 µg/mL": 92},
      {"smiles": "COc1cccc(/C=C(\\NC(=O)c2ccc3ccccc3c2)C(=O)NCCc2ccccc2)c1", "note": "[2-naphthyl / m-anisyl / phenethyl]", "inhibition at 6 µg/mL": 91},
      {"smiles": "O=C(NC(c1ccccc1)c1ccccc1)/C(=C/c1cccc(C(F)(F)F)c1)NC(=O)c1ccc2ccccc2c1", "inhibition at 6 µg/mL": 96},
      {"smiles": "O=C(NC1CCCc2ccccc21)/C(=C/c1ccc(C(F)(F)F)cc1)NC(=O)c1ccc(C(F)(F)F)cc1", "note": "(stereo not shown)", "inhibition at 6 µg/mL": 94},
      {"smiles": "Cc1ccc(C(=O)N/C(=C\\c2ccccc2Cl)C(=O)NCc2cccc3ccccc23)cc1", "inhibition at 6 µg/mL": 90},
      {"smiles": "O=C(NC1CCc2ccccc21)/C(=C/c1ccc(C(F)(F)F)cc1)NC(=O)c1ccc2ccccc2c1", "note": "(stereo not shown)", "inhibition at 6 µg/mL": 92},
      {"smiles": "O=C(NC1CCCc2ccccc21)/C(=C/c1ccc(Cl)cc1)NC(=O)c1ccc(C(F)(F)F)cc1", "note": "(stereo not shown)", "inhibition at 6 µg/mL": 92},
      {"smiles": "O=C(NCC(c1ccccc1)c1ccccc1)/C(=C/c1cccc(C(F)(F)F)c1)NC(=O)c1ccc(Cl)cc1Cl", "inhibition at 6 µg/mL": 93},
      {"smiles": "O=C(NC(c1ccccc1)c1ccccc1)/C(=C/c1ccc(-c2ccccc2)cc1)NC(=O)c1ccc(Cl)cc1Cl", "inhibition at 6 µg/mL": 96},
      {"smiles": "O=C(NCC(c1ccccc1)c1ccccc1)/C(=C/c1cccc(C(F)(F)F)c1)NC(=O)c1ccc2ccccc2c1", "inhibition at 6 µg/mL": 93},
      {"smiles": "O=C(NC1CCCc2ccccc21)/C(=C/c1cccc(C(F)(F)F)c1)NC(=O)c1ccc(Cl)cc1Cl", "note": "(stereo not shown)", "inhibition at 6 µg/mL": 90},
      {"smiles": "O=C(NC1CCCc2ccccc21)/C(=C/c1ccc(OC(F)(F)F)cc1)NC(=O)c1ccc2ccccc2c1", "note": "(stereo not shown)", "inhibition at 6 µg/mL": 94},
      {"smiles": "O=C(NC(c1ccccc1)c1ccccc1)/C(=C/c1cccc(C(F)(F)F)c1)NC(=O)c1ccc(Cl)cc1Cl", "inhibition at 6 µg/mL": 96}
    ]},
    {"target": "Rev-RRE complexes (recombinant Rev protein, synthetic 32P-labelled RRE RNA) (Human immunodeficiency virus type 1 group M subtype B, UniProt P04618)", "assay": "Rev-RRE binding inhibition, nitrocellulose filter binding assay with scintillation counting", "design": "species or system Human Immunodeficiency Virus (HIV)", "settings": "read-out: % inh, array assayed at 6 ug/mL, non-specific competitor RNA", "protocol": "as §1, §2", "units": {"inhibition at 6 µg/mL": "%"}, "values": [
      {"smiles": "O=C(Nc1cccnc1)/C(=C/c1cc(F)cc(F)c1)NC(=O)c1ccc(Cl)cc1Cl", "inhibition at 6 µg/mL": 91},
      {"smiles": "O=C(NC(c1ccccc1)c1ccccc1)/C(=C/c1ccc(C(F)(F)F)cc1)NC(=O)c1ccc2ccccc2c1", "inhibition at 6 µg/mL": 96},
      {"smiles": "CC(CCc1ccccc1)NC(=O)/C(=C/c1ccc(C(F)(F)F)cc1)NC(=O)c1ccc2ccccc2c1", "note": "(stereo not shown)", "inhibition at 6 µg/mL": 96}
    ]}
  ]
}
